Data set [1] concerns U2OS cells. Nature of the data set: Cytotoxicity assay (CellTiter-Glo, ATP levels). It counts as cell-based. As to conditions: 24 h, ATP levels by luciferase signal. The procedure: U2OS (HTB-96), HEK293T (CRL-3216), and HeLa (CCL-2) cells were originally purchased from ATCC and periodically authenticated by short tandem repeat (STR) profiling. Cells were grown in Dulbecco’s modified Eagle’s medium (DMEM) supplemented with 10% fetal bovine serum (FBS), 1% penicillin/streptomycin, and 1% L-glutamine. Cells were counted using ADAM-CellT (NanoEntek), plated, and transfected using either Lipofectamine 3000 (L3000008; Thermo Fisher Scientific) or Viafect (E4981; Promega) for transient overexpression according to the manufacturer’s instructions. Cytotoxicity was assayed using CellTiter-Glo 2.0 reagent (Promega) according to the manufacturer’s instructions.
(In ATP-based viability assays light output follows the ATP content of the culture.)

Data set [2] deals with TDP-43 accumulation in stress granules in U2OS cells. Nature of the data set: TDP-43 immunofluorescence after preincubation and arsenite. It counts as cell-based. As to conditions: 50 μM pretreatment, 250 μM NaAsO2 for 30 min. The protocol: (§1) U2OS cells or U2OS cells stably expressing G3BP1-GFP were seeded in four-well Lab-Tek II Chambered Coverglass (1055360; Thermo Fisher Scientific). For preincubation experiments, cells were treated with 50 μM G3I compound for 20 min or 24 h, followed by 250 μM NaAsO2 and 50 μM G3I compound for 30 min. For posttreatment, cells were treated with 250 μM NaAsO2 for 30 min, followed by treatment with 250 μM NaAsO2 and 50 μM G3I compound for 5 min. Cells were then washed twice with PBS and fixed with 4% PFA in PBS for 10 min. Cells were then washed three times with PBS (5 min between each wash), permeabilized with 0.5% Triton X-100 in PBS for 10 min, and washed twice with PBS. Next, cells were blocked for 1 h with 3% BSA in PBS at room temperature, followed by incubation with primary antibodies diluted in 3% BSA overnight at 4°C. Cells were then washed three times with PBS (5 min between each wash) and incubated with secondary antibodies and Hoechst diluted in 3% BSA at room temperature for 1 h. Cells were then washed three times with PBS (5 min between each wash) and imaged. […]

Data set [3] concerns the target T1, NTF2L domain of G3BP1 (GFP-NTF2L) interaction with caprin 1 and USP10 (Homo sapiens, UniProt Q13283).
T1 construct: lysates expressing the NTF2L domain of G3BP1 (GFP-NTF2L); expressed in transfected cells; host or cells: HEK293T cells expressing GFP-NTF2L (lysate)
Nature of the data set: Coimmunoprecipitation of GFP-NTF2L with caprin 1 and USP10 in HEK293T lysates. It counts as biochemical. As to conditions: 25 and 50 μM, GFP IP.

In data set [4] the test system is eIF3η and PABPC1 puncta in U2OS cells. Nature of the data set: Immunofluorescence of additional stress granule markers after preincubation. As to conditions: 50 μM pretreatment, 250 μM NaAsO2 for 30 min. In kind it is cell-based. The protocol: as §1
In data set [5] the test system is eIF3η, PABPC1, and FXR1 puncta in U2OS cells stably expressing G3BP1-GFP. Description: Immunofluorescence of additional stress granule markers after post-addition. It counts as cell-based. As to conditions: 250 μM NaAsO2 for 30 min, then 50 μM compound for 5 min. The protocol: as §1
In data set [6] the test system is stress granule formation in human iPSC-derived cortical neurons. Nature of the data set: Stress granule formation in iPSC-derived cortical neurons (co-incubation). It counts as cell-based. As to conditions: 50 μM co-incubated with or without 500 μM NaAsO2 for 60 min. The protocol:
i3N iPSC clones were gifts from Michael E. Ward (National Institutes of Health, Bethesda, MD, USA) and were used to generate a G3BP1-mNeongreen knock-in iPSC line. iPS neurons were differentiated with a two-step protocol (predifferentiation and maturation) as previously described ([Wang et al., 2017]). For predifferentiation, iPSCs were incubated with 1 µg/ml doxycycline hyclate (Sigma-Aldrich) for 3 days at a density of 1.2 × 10^6 cells/well in six-well dishes coated with Matrigel in knockout DMEM (KO-DMEM)/F12 medium (Thermo Fisher Scientific) containing N2 supplement (Thermo Fisher Scientific), non-essential amino acids (NEAA; Thermo Fisher Scientific), GlutaMAX Supplement (Thermo Fisher Scientific), and Y-27632 ([…] Technologies). The medium was changed daily and Y-27632 was removed from day 2. For maturation, predifferentiated precursor cells were dissociated, counted, and subplated at 25 × 10^4 cells/ml on dishes coated with 50 μg/ml poly-L-ornithine in BrainPhys neuronal medium ([…] Technologies) containing N2 (Thermo Fisher Scientific), B-27, 20 ng/ml BDNF (PeproTech), 20 ng/ml GDNF (PeproTech), 500 µg/ml dibutyryl cyclic-AMP (Sigma-Aldrich), 200 nM L-ascorbic acid (Sigma-Aldrich), 1 µg/ml natural mouse laminin (Thermo Fisher Scientific), 1 μM Ara-C (Sigma-Aldrich), and 1 µg/ml doxycycline hyclate. Half-medium was changed every other day. […]

SMILES strings stand for the structures.

T1 sequence (Q13283 11-133 limits assumed): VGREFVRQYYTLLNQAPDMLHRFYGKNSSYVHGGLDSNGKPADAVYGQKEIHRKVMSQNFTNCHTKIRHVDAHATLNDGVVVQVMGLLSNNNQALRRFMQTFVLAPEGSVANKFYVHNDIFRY

As for `CC(NC(=O)C(NC(=O)C(NC(=O)CCC(C)(C)C)C(C)(C)O)C(C)c1ccccc1)C(=O)N1CCCC1c1ccccc1` (stereo not shown) [G3Ib], the cell-based toxicity entry in data set [1] was “do not appear to induce cellular toxicity or growth phenotypes”. Moreover, the “TDP-43 accumulation in stress granules” value in data set [2] is reported as “not”. In addition, the “interaction of NTF2L domain with caprin 1 and USP10” value in data set [3] was “dose-dependent reduction”. Moreover, the “eIF3η and PABPC1 puncta” value in data set [4] was “reduced eIF3η and PABPC1 puncta”. Also, the “eIF3η, PABPC1, and FXR1 puncta” value in data set [5] is “reduced eIF3η, PABPC1, and FXR1 puncta”.

In the case of `COCCC(NC(=O)C(C)NC(=O)C(NC(=O)C(NC(=O)C(F)CC(C)(C)C)C(C)(C)O)C(C)c1ccccc1)C(=O)N(C)Cc1ccccc1` (stereo not shown) [G3Ia], the cell-based toxicity result in data set [1] is “do not appear to induce cellular toxicity or growth phenotypes”. Besides, the “TDP-43 accumulation in stress granules” value in data set [2] is listed as “not”. Moreover, in data set [6], the “spontaneous and arsenite-induced stress granule formation” value was “blocked both spontaneous and arsenite-induced stress granule formation”. Besides, in data set [4], the “eIF3η and PABPC1 puncta” value is “reduced eIF3η and PABPC1 puncta”. Moreover, the “eIF3η, PABPC1, and FXR1 puncta” value in data set [5] was “reduced eIF3η, PABPC1, and FXR1 puncta”.

These data come from publication PMC10824102, “Identification of small molecule inhibitors of G3BP-driven stress granule formation” (The Journal of Cell Biology, 2024).
